The source of these data is US20050054103A1, “Expansion of renewable stem cell populations using modulators of PI 3-kinase” (priority 2003, published 2005).

Series [1] concerns HL-60 cells. Briefly: Copper determination in chelator treated cells (atomic absorption). The series is classed as cell-based, human. The conditions noted are these: for activity at 20 µM / activity at 100 µM / activity at 500 µM: Homo sapiens, HL-60, read-out: Average Intracellular Cu (% of control). How it is done:
Copper Determination: Cells were harvested by centrifugation at 1000×g for 5 minutes. The cell pellet was washed three times by re-suspending the cells in PBS (Ca^++ and Mg^++ free) and centrifugation at 1000×g. An aliquot containing 2×10^6 cells was then transferred into a metal-free Eppendorf tube and the cells were recovered by centrifugation at 1000×g. The cell pellet was re-suspended in 0.03 M ultra-pure nitric acid to give a concentration of 1×10^7 cells/ml. The cells were homogenized with a high shear mixer (polytron, Kinematica, Switzerland) for 1 minutes to disrupt the cell and release intracellular copper content. Cell samples were vortexed before transferring to a vial autosampler and analyzed in duplicate by a Perkin Elmer graphite furnace atomic absorption spectrophotometer at a wavelength of 324.7 nm. The samples were analyzed against copper standard solution prepared from a commercial stock solution that was diluted with 0.03 M ultra pure nitric acid.
FIG. 44 provides the chemical structure of the various chelators employed in these experiments.

In series [2] the test system is CD34 cells. Briefly: Transition metal chelators in CD34+ cell liquid cultures (cell number, CD34 cells, clonability). The series is classed as cell-based, human. The following applies: for cell proliferation and CFUc expansion in long-term CD34 cultures: long term cultures with early cytokines. The method, then:
The interphase layer of mononuclear cells were collected, washed three times with Ca/Mg free phosphate buffered saline containing 1% bovine serum albumin (BSA). The cells were incubated for 30 min. at 4° C. with murine monoclonal anti CD34 antibody (0.5 μg/10^6 mononuclear cells) and thereafter isolated using the miniMACS apparatus (Miltenyi-Biotec, Bergisch, Gladbach, Germany) according to the manufacturer's protocol.
Culture procedures: For the expansion of progenitor cells, CD34^+ enriched fractions or unseparated mononuclear cells were seeded at about 1-3×10^4 cells/ml in either alpha minimal essential medium containing 10% preselected fetal calf serum (FCS) (both from GIBCO, Grand Island, N.Y.), or serum-free medium (Progenitor-34 medium, Life Technologies, Grand Island, N.Y.). The media were supplemented with a mixture of growth factors and transition metal chelators. The cultures were incubated at 37° C. in an atmosphere of 5% CO2 in air with extra humidity. Half of the medium was changed weekly with fresh medium containing all the supplements.
Cloning potential evaluations: The cloning potential of cells developed in the liquid culture was assayed, at different intervals, in semi-solid medium. The cells were washed and seeded in 35 mm dishes in methylcellulose containing alpha medium supplemented with recombinant growth factors (SCF, G-CSF, GM-CSF and EPO). Following 2 weeks incubation, the cultures were scored with an inverted microscope. Colonies were classified as blast, mixed, erythroid, myeloid, and megakaryocytic, according to their cellular composition.
Morphological assessment: In order to characterize the resulting culture populations, aliquots of cells were deposited on a glass slide (cytocentrifuge, Shandon, Runcorn, UK), fixed and stained in May-Grunwald Giemsa. Other aliquots were stained by benzidine for intracellular hemoglobin.
Immunofluorescence staining: At different intervals, cells from the liquid cultures were assayed for CD34 antigen. Aliquots were harvested, washed and incubated on ice with FITC-labeled anti CD45 monoclonal antibody and either PE-labeled anti CD34 (HPCA-2) monoclonal antibody or PE-labeled control mouse Ig. After incubation, red cells were lysed with lysing solution, while the remaining cells were washed and analyzed by flow cytometer.
Flow cytometry: Cells were analyzed and sorted using FACStar^plus flow cytometer (Becton-Dickinson, Immunofluorometry systems, Mountain View, Calif.). Cells were passed at a rate of 1,000 cells/second through a […] nozzle, using saline as the sheath fluid. […] The PMTs was set at the appropriate voltage. Logarithmic amplification was applied for measurements of fluorescence and linear amplification—for forward light scatter. At least 10^4 cells were analyzed.
Cord blood-derived CD34 cells were plated in liquid culture in the presence of: FL—50 ng/ml, SCF—50 ng/ml, IL-6—50 ng/ml, with or without IL-3—20 ng/ml, with or without TEPA—10 μM. On day 7, the percentage of CD34 cells and the total cell number were determined. Aliquots equivalent to 1×10^3 initiating cells were assayed on days 0 and 7 for colony forming cells (CFU) by cloning in semi-solid medium. CFU expansion represents the ratio of CFU present on day 7 to CFU present on day 0.
CD34^+ cells derived from human neonatal cord blood were purified by immunomagnetic method and then cultured in liquid medium supplemented with cytokines either with or without transition metal chelators. At weekly intervals, the cultures were demi-depopulated by removing half of the culture content (supernatant and cells) and replacing it with fresh medium, cytokines and the chelators. At the indicated weeks the cellular content of the cultures were quantified for total cells (by a manual microscopic/hemocytometric method), for CD34^+ cells (by immuno-flow cytometry) and for clonogenic cells (by cloning the cells in cytokine-supplemented semi-solid medium).

The test system of series [3] is Mouse erythroleukemic cells (MEL). The series is described as follows: HMBA-induced differentiation of erythroleukemic cells. In kind it is cell-based. The conditions noted are these: day 3. How it is done: Mouse erythroleukemic cells (MEL): MEL cells are erythroblast like cells. Following treatment with several chemicals (differentiation inducers) the cells undergo erythroid differentiation and accumulate hemoglobin. […] At day 3 of the culture, the total number of cells and the percentage of hemoglobin-containing cells were determined (Table 7).
On day 3, total cell number and hemoglobin containing (benzidine positive) cells were determined.

Series [4] has as its system CD34+ cells. Briefly: Ex vivo expansion of CD34+ cell enriched cultures with RXR, RAR and RAR+RXR antagonists (CFU, CD34+ counts, FACS). The series is classed as cell-based, human. The method, then:
Cultures were prepared and maintained as described above.
, the percentage of cells bearing the CD34^+ marker (considered to be mostly committed progenitor cells), as well as the percentage of cells bearing the markers CD34^+/CD38^− and CD34^+Lin^− […]

Where [5] appears, read: polyamine chelating agents, long-term CD34 cultures (FIGS. 39a-b).
Setting [6] is: HX-531 (10^−5M in table head), 3 weeks after seeding.

`O=C1CC(=O)NCCNCCCNCCN1` [1,4,8,11-Tetraaza cyclotetradecane-5,7-dione]: in series [1] (20 μM chelator), the “Average Intracellular ppb Cu” value turned out to be 37.9 ppb and the activity at 20 µM is 77%. Besides, in series [1] (100 μM chelator), the “Average Intracellular ppb Cu” value came out at 27.4 ppb and the activity at 100 µM is 56%. Moreover, in series [1] (500 μM chelator), the “Average Intracellular ppb Cu” value is listed as 28.3 ppb and the activity at 500 µM was 57%.
Turning to `C1CNCCNCCN1.Cl.Cl.Cl` [1,4,7-Triazacyclononane trihydrochloride], in series [1] (20 μM chelator), the “Average Intracellular ppb Cu” value came out at 15.8 ppb and the activity at 20 µM was 32%. In series [1] (100 μM chelator), the “Average Intracellular ppb Cu” value is listed as 17.7 ppb and the activity at 100 µM stood at 36%.
Turning to `NCCN` [EDA, ethylenediamine], the “cell proliferation and CFUc expansion in long-term CD34 cultures” value (“cell proliferation and CFUc expansion” below) in series [2] is “support continuous cell proliferation and long-term generation of CFUc and to delay cell differentiation”. For the same compound, the “concentration with optimal activity” value in series [2] (setting [5]) turned out to be 20 µM.
For `NCCCN(CCN)CCN` [N,N,Bis (2 animoethyl) 1,3 propane diamine], in series [1] (20 μM chelator), the “Average Intracellular Cu (% of control)” value was 22% and the “Average Intracellular ppb Cu” value came out at 10.8 ppb. In series [1] (100 μM chelator), the “Average Intracellular Cu (% of control)” value turned out to be 27% and the “Average Intracellular ppb Cu” value was found to be 13.4 ppb.
Consider `NCCNCCNCCN` [TETA, triethylene-tetramine], for which, in series [2], the “cell proliferation and CFUc expansion” value is “support continuous cell proliferation and long-term generation of CFUc and to delay cell differentiation”. Also, the “concentration with optimal activity” value in series [2] (setting [5]) was determined as 20 µM. Besides, in series [1] (20 μM chelator), the “Average Intracellular ppb Cu” value came to 27.7 ppb and the activity at 20 µM stood at 56%. In series [1] (100 μM chelator), the “Average Intracellular ppb Cu” value is 21.2 ppb and the activity at 100 µM is 43%. In series [1] (500 μM chelator), the “Average Intracellular ppb Cu” value was 16.8 ppb and the activity at 500 µM turned out to be 34%.
For the compound `C1CNCCCNCCNCCCNC1` [1,4,8,12-tetraaza cyclopentadecane], in series [1] (20 μM chelator), the “Average Intracellular ppb Cu” value is listed as 13.4 ppb and the activity at 20 µM turned out to be 27%. Besides, in series [1] (100 μM chelator), the “Average Intracellular ppb Cu” value is 12.1 ppb and the activity at 100 µM was found to be 25%. In series [1] (500 μM chelator), the “Average Intracellular ppb Cu” value came to 9.6 ppb and the activity at 500 µM was found to be 19%.
As for `C[C@H](CS)C(=O)N1CCC[C@H]1C(=O)O` [Captopril, captopril], in series [3] (HMBA + chelator 20 μM), the “Benzidine Positive Cells (%)” value was determined as 29% and the “Cells/ml (×10^4)” value is 34 ×10^4. Besides, in series [3] (HMBA + chelator 40 μM), the “Benzidine Positive Cells (%)” value worked out at 12% and the “Cells/ml (×10^4)” value is 34 ×10^4.
For the compound `CC(=O)NCCCCCCNC(C)=O` [HMBA, hexamethylene bisacetamide], in series [3] (HMBA 4 mM alone), the “Benzidine Positive Cells (%)” value turned out to be 46% and the “Cells/ml (×10^4)” value was 32 ×10^4.
Zinc: the “cell proliferation and CFUc expansion” value in series [2] was “mimicked the effect of the chelating agents in long term cultures, but to a smaller extent than the chelators themselves”.
With Glycyl-glycyl-histidine Cu complex, the “Average Intracellular Cu (% of control)” value in series [1] (20 μM chelator) is recorded as 411%; in series [1] (100 μM chelator) it was 1181%; in series [1] (500 μM chelator) it was 2592%. In addition, the entries for the “Average Intracellular ppb Cu” value in series [1] (20 μM chelator), in series [1] (100 μM chelator) and in series [1] (500 μM chelator) were 202.7 ppb, 582 ppb and 1278 ppb, respectively.
`NCCCNCCCNCCCN` [N,N′-bis(3-aminopropyl)-1,3-propanediamine]: in series [1] (20 μM chelator), the “Average Intracellular ppb Cu” value came out at 33.8 ppb and the activity at 20 µM was determined as 69%. For the same compound, in series [1] (100 μM chelator), the “Average Intracellular ppb Cu” value is recorded as 26.2 ppb and the activity at 100 µM is 53%. Besides, in series [1] (500 μM chelator), the “Average Intracellular ppb Cu” value was 27.9 ppb and the activity at 500 µM was 57%.
Regarding `C1CNCCOCCNCCN1` [1-Oxa-4,7,10-triazacyclododecane], in series [1] (20 μM chelator), the “Average Intracellular ppb Cu” value is reported as 39.0 ppb and the activity at 20 µM was found to be 79%. Also, in series [1] (100 μM chelator), the “Average Intracellular ppb Cu” value is 22.9 ppb and the activity at 100 µM came to 46%. For the same compound, in series [1] (500 μM chelator), the “Average Intracellular ppb Cu” value is 17.6 ppb and the activity at 500 µM turned out to be 36%.
Regarding `CC(C)(S)[C@@H](N)C(=O)O` [PEN, Penicillamine], the “cell proliferation and CFUc expansion” value in series [2] is “sustained cell proliferation and expansion of clonogenic cells”. For the same compound, the “concentration with optimal activity” value in series [2] (transition metal chelating agents, long-term CD34 cultures (FIGS. 40a-b)) is 5 µM.
As to Copper, the “effect on TEPA activities” value in series [2] (TEPA-treated cultures supplemented with Copper) is on record as “reversed”.
With `CCCOc1cc2c(cc1\C(C)=C/C=C/C(C)=C/C(=O)O)C(C)(C)CCC2(C)C` [LGN 100754], in series [4] (10^−7 M, with TPO, FLT3, IL-6 and IL-3, 3 and 5 weeks), the “activity on ex vivo expansion of stem/progenitor cells (CFU, CD34+, CD34+/38−, CD34+/Lin−)” value was “no activity”.
On to `CN1c2ccc([N+](=O)[O-])cc2N=C(c2ccc(C(=O)O)cc2)c2cc3c(cc21)C(C)(C)CCC3(C)C` [HX-531, 4-[5H-2,3-(2,5-Dimethyl-2,5-Hexano) 5-Methyl-8-nitrodibenzo [b,e][1,4]diazepin-11-yl) Benzoic acid], for which the “CD34^+ (×10^4)” value in series [4] (setting [6]) is listed as 167 ×10^4; in series [4] (HX-531, 5 weeks after seeding) it was 1636 ×10^4; in series [4] (HX-531, 9 weeks after seeding), 4977 ×10^4; in series [4] (HX-531, 11 weeks after seeding) it was 4055 ×10^4. For the same compound, the “CFU (×10^3)” value is 1920 ×10^3 in series [4] (setting [6]); 8542 ×10^3 in series [4] (HX-531, 5 weeks after seeding); 36557 ×10^3 in series [4] (HX-531, 9 weeks after seeding); 67338 ×10^3 in series [4] (HX-531, 11 weeks after seeding). For the same compound, the “CFU mixed (×10^3)” value in series [4] (HX-531, 3 weeks after seeding) is reported as 120 ×10^3.
`C1COCCNCCOCCN1` [1,7-Dioxa-4,10-diazacyclododecane]: in series [1] (20 μM chelator), the “Average Intracellular ppb Cu” value is 35.5 ppb and the activity at 20 µM is 72%. In addition, in series [1] (100 μM chelator), the “Average Intracellular ppb Cu” value was 36.1 ppb and the activity at 100 µM was found to be 73%. In series [1] (500 μM chelator), the “Average Intracellular ppb Cu” value is reported as 35.0 ppb and the activity at 500 µM stood at 71%.
